Assay results reported in ChEMBL document CHEMBL1671667, “Impact of low-level resistance to fluoroquinolones due to qnrA1 and qnrS1 genes or a gyrA mutation on ciprofloxacin bactericidal activity in a murine model of Escherichia coli urinary tract infection” (Antimicrob Agents Chemother, 2009).
Converted amounts (≈) assume the structure as drawn.

Assays:
Klebsiella pneumoniae = test: Antimicrobial activity against qnr-negative Klebsiella pneumoniae C2 harboring qnrA1 gene
in vivo = conditions: CBA, mouse, sc, 2.5 mg/kg
Description: Cmax in immunocompetent CBA mouse infected with Escherichia coli at 2.5 mg/kg, sc administered as single dose after 15 mins by liquid chromatography

SMILES: O=C(O)c1cn(C2CC2)c2cc(N3CCNCC3)c(F)cc2c1=O [CIPROFLOXACIN]
- MIC (Klebsiella pneumoniae): 4 µg/mL (≈ 12.1 µM)
- Cmax at 0.25 h (in vivo): 1100 ng/mL
